Data published in patent US6683092B1, “[3-(C5-14ALKYL-2-OXO-1,2,3,4-TETRAHYDRO-QUINOLIN-6-YL)-3-OXO-PROPENYL]-PHENYL AND [3-(C5-14ALKYL-2-OXO-1,2,3,4- TETRAHYDRO-QUINOLIN-6-YL)-3-OXO-PROPENYL]-HETEROARYL DERIVATIVES HAVING ANTI-TUMOR ACTIVITY” (Allergan, Inc., priority 2003, dated 2004).
“Also recorded” adds a separate entry of the source.

How the values were obtained:
[1] = tested on: breast cancer cell line MCF-7; test: Colony (clonogenic) assay, serum-free, MCF-7; assay type: cell-based; details: 14 days, concentration giving 50% inhibition of cell growth
Experimental: (§1) Specifically, the following assay procedure was employed to test certain exemplary compounds of the invention in the breast cancer cell line known in the art as MCF-7 and in the prostrate cancer cell line known in the art as LNCaP.
(§2) Set 4 mL cultures in 60 mm petri dishes
(medium for MCF-7—DMEN with L-glutamine & without glucose)
(§3) Seeding density: LNCaP serum-free 1200 cells/dish; MCF-7 serum-free 1400 cells/dish
(§4) Add compound immediately after setting cultures and then change the media and re-feed with compound at day 2 (or day 3 for assays set on Fridays).
(§5) Incubated for 14 days (serum free lines)
(§6) 2. fix with 10% formal saline for ˜30 mins
(§7) 3. remove formal saline and wash with 2-3 mLs PBS
(§8) 4. stain with 1% methylene blue in PBS, leave this on for ˜1 hr
(§9) 5. remove stain and wash off in tap water
(§10) 6. dry overnight and count the colonies
(§11) The results obtained in these assays are shown in Table 1, expressed in EC50 numbers, where EC50 is the concentration (expressed as nanomolar) of the compound that results in 50% inhibition of the growth of the cells.

[2] = tested on: prostate cancer cell line LNCaP; test: Colony (clonogenic) assay, serum-free, LNCaP; assay type: cell-based; details: 14 days, concentration giving 50% inhibition of cell growth; for EC50: Homo sapiens, LNCaP, 336 h
Experimental: as §1, §2
(medium for LNCaP—[…] with ITS & linoleic acid)
as §3, §4, §5, §6, §7, §8, §9, §10, §11

Compound	EC50 [1]	EC50 for Prostate Cancer Cell Line (LNCaP) [2]	EC50 ([1]; Homo sapiens, MCF7, 336 h)	EC50 [2]	EC50 for Breast Cancer Cell Line (MCF-7) [1]
4-[3-(1-Phenylethyl-4,4-dimethyl-2-oxo-1,2,3,4-tetrahydro-quinolin-6-yl)-3-oxo-propenyl]-benzoic acid [Compound 8e]	9 nM	Not Active			
CCCCCCCCCN1C(=O)CC(C)(C)c2cc(C(=O)C=Cc3ccc(C(=O)O)cc3)ccc21 [Compound 8d, 4-[3-(1-Nonyl-4,4-dimethyl-2-oxo-1,2,3,4-tetrahydro-quinolin-6-yl)-3-oxo-propenyl]-benzoic acid]			3 nM	155 nM	
CCCCCCN1C(=O)CC(C)(C)c2cc(C(=O)C=Cc3ccc(C(=O)O)cc3)ccc21 [Compound 8a, 4-[3-(1-Hexyl-4,4-dimethyl-2-oxo-1,2,3,4-tetrahydro-quinolin-6-yl)-3-oxo-propenyl]-benzoic acid]			9 nM	90 nM	
CCCCCCCCN1C(=O)CC(C)(C)c2cc(C(=O)C=Cc3ccc(C(=O)O)cc3)ccc21 [Compound 8c, 4-[3-(1-Octyl-4,4-dimethyl-2-oxo-1,2,3,4-tetrahydro-quinolin-6-yl)-3-oxo-propenyl]-benzoic acid]			30 nM	52 nM	
CN1C(=O)CC(C)(C)c2cc(C(=O)C=Cc3ccc(C(=O)O)cc3)ccc21 [Compound 8f, 4-[3-(1-Methyl-4,4-dimethyl-2-oxo-1,2,3,4-tetrahydro-quinolin-6-yl)-3-oxo-propenyl]-benzoic acid]		inactive; also recorded: Not Active			inactive; also recorded: Not Active
CCCCCCCN1C(=O)CC(C)(C)c2cc(C(=O)C=Cc3ccc(C(=O)O)cc3)ccc21 [Compound 8b, 4-[3-(1-Heptyl-4,4-dimethyl-2-oxo-1,2,3,4-tetrahydro-quinolin-6-yl)-3-oxo-propenyl]-benzoic acid]			9 nM	155 nM	
